Literature values, collected in patent US6645974B2, “Androgen receptor modulators and methods for use thereof” (Merck & Co., Inc., priority 2001, dated 2003).
Where a name gives a salt, the structure may show the parent alone.

What was measured:
[1] = after 7 years of treatment
[2] = postmenopausal osteoporotic women, median of 22 months of treatment

Row | Compound | increase in spinal BMD [1] [%] | reduction in nonvertebral fractures [2] [%] | reduction in spine fractures [2] [%]
1 | NCCCC(O)(P(=O)(O)O)P(=O)(O)O [alendronate, 4-amino-1-hydroxybutylidene-1,1-bisphosphonic acid monosodium salt, trihydrate] | ≤ 11 |  | 
2 | hPTH(1-34): human parathyroid hormone 1-34 fragment (SVSEIQLMHNLGKHLNSMERVEWLRKKLQDVHNF; Parathyroid hormone; UniProt P01270 32-65, looked up, fragment) |  | 54 | ≥ 65
